The nature of series [1]: Solubility of BIOLIMUS A9. Format: physicochemical.
For series [2], the system named is proliferating animal and human smooth muscle cells. Put plainly: Growth inhibition of smooth muscle cells in culture. Type of series: cell-based. The conditions noted are these: compared with sirolimus. The source says:
Like sirolimus and everolimus, BIOLIMUS A9 is rapidly absorbed in tissues and is able to reversibly bind to immunophilins (cytoplasmic proteins) found inside living cells.

Series [3] can be described thus: Partition coefficient (log P), reverse phase HPLC.

On to `CCOCCO[C@@H]1CC[C@@H](C[C@@H](C)[C@@H]2CC(=O)[C@H](C)/C=C(\C)[C@@H](O)[C@@H](OC)C(=O)[C@H](C)C[C@H](C)/C=C/C=C/C=C(\C)[C@@H](OC)C[C@@H]3CC[C@@H](C)[C@@](O)(O3)C(=O)C(=O)N3CCCC[C@H]3C(=O)O2)C[C@H]1OC` [BIOLIMUS A9, 42-O-(2-ethoxyethyl)rapamycin], for which the “Solubility: 25% ethanol in water” value in series [1] (25% ethanol in water) is reported as “Practically insoluble”. Besides, in series [1] (ethanol), the “Solubility: ethanol” value is “Very soluble”. For the same compound, the “Solubility: ethyl acetate” value in series [1] (ethyl acetate) was “Very soluble”. Besides, the “Solubility: methanol” value in series [1] (methanol) was “Very soluble”. The “Solubility: water (independent of pH)” value in series [1] (water (independent of pH)) is given as “Practically insoluble”. Moreover, in series [2], the “potency of growth inhibition of proliferating smooth muscle cells” value is given as “potency similar to that of sirolimus”. Moreover, the peak blood levels (after stent implantation) is 3 ng/mL. In addition, under “in vivo, po”, the “peak blood level lower than therapeutic levels of oral sirolimus or everolimus following organ transplant” value is reported as 20 fold. Further, the “Partition Coefficient (E Log Poct): Log Pn-octanol” value in series [3] (As measured by reverse phase HPLC) was “Log Pn-octanol = 7.63”. For the same compound, the “partition coefficient (log P)” value in series [3] (pH 7.40, estimated) is 7.63.
